In US20090137652A1, “METHODS FOR NEUROPROTECTION” (priority 2005, published 2009):

How the values were obtained:
[1] = system: rats subjected to li-pilo SE; assay: Quantification of cell densities 14 days after lithium-pilocarpine SE (Example 2); assay type: in vivo, rat; conditions: 14 days after SE
Protocol: All rats received lithium chloride (3 meq/kg, i.p., Sigma, St Louis, Mo., U.S.A.) and about 20 h later, all animals received also methylscopolamine bromide (1 mg/kg, s.c., Sigma) that was administered to limit the peripheral effects of the convulsant. SE was induced by injecting pilocarpine hydrochloride (25 mg/kg, s.c., Sigma) 30 min after methylscopolamine. The effects of increasing doses of TC (RWJ) were studied in 5 groups of rats. […] The control group received vehicle instead of pilocarpine and TC.
At the moment, neuronal counting is still in progress in the second group of animals studied for epileptogenesis and long-term counting and the data concerning that part of the study will not be included in the present report. For neuronal counting, animals were deeply anesthetized with […] pentobarbital (Dolethal®, Vetoquinol, Lure, France). Brains were then removed and frozen. Serial 20 μm slices were cut in a cryostat, air-dried during several days before thionine staining. […] The grid of counting was placed on a well defined area of the cerebral structure of interest and counting was carried out with a microscopic enlargement of 200- or 400-fold defined for each single cerebral structure. Cell counts were performed twice on each side of three adjacent sections for each region by a single observer unaware of the animal's treatment. The number of cells obtained in the 12 counted fields in each cerebral structure was averaged. This procedure was used to minimize the potential errors that could result from double counting leading to overestimation of cell numbers. […] Counts involved only neurons with cell bodies larger than 10 μm. Cells with small cell bodies were considered as glial cells and were not counted.
For neuronal damage and epileptogenesis, statistical analysis between groups was performed by means of a one-way analysis of variance followed by a post-hoc Dunnett or Fisher test using the Statistica software.

[2] = system: rats subjected to Li-pilo induced SE; assay: Quantification of cell densities after lithium-pilocarpine SE (Example 1); assay type: in vivo, rat; conditions: for cell loss, CA1 pyramidal layer: significant vs pilo-DZP
Protocol: The effects of increasing doses of the test compound were studied on 3 groups of rats. The animals of the first group received 10 mg/kg of the test compound, i.p., 1 h after the onset of SE (pilo-TC10) while the animals of groups 2 and 3 received 30 and 60 mg/kg of the test compound (pilo-TC30 and pilo-TC60), respectively.
Another group was injected with 2 mg/kg diazepam (DZP, i.m.) at 1 h after the onset of SE. This is a standard treatment to improve animals survival after SE (pilo-DZP). The control group received saline instead of pilocarpine and the test compound (saline-saline). The pilo-test compound rats surviving SE were then injected about 10 h after the first test compound injection with a second i.p. injection of the same dose of the test compound and were maintained under a twice daily treatment with the test compound for 6 additional days. Pilo-DZP received a second injection of 1 mg/kg DZP on the day of SE at about 10 h after the first one. Thereafter, Pilo-DZP and saline-saline rats received twice daily an equivalent volume of saline.
Quantification of cell densities was performed at […] after SE on 8 pilo-DZP, 8 pilo-TC10, 7 pilo-TC30, 7 pilo-TC60, and 6 saline-saline rats. At 14 days after SE, animals were deeply anesthetized with […] pentobarbital (Dolethal®, Vetoquinol, Lure, France. Brains were then removed and frozen. Serial 20 μm slices were cut in a cryostat, air-dried during several days before thionine staining.
Quantification of cell densities was performed with a 10×10 boxes 1 cm^2 microscopic grid on coronal sections according to the stereotaxic coordinates of the rat brain atlas (Paxinos and Watson, 1986, The Rat brain in Stereotaxic Coordinates, 2nd ed. Academic Press, San Diego). Cell counts were performed twice in a blind manner and were the average of at least 3 values from 2 adjacent sections in each individual animal. Counts involved only cells larger than 10 μm, smaller ones being considered as glial cells.
For the comparison of the characteristics of SE in pilo-saline and pilo-test compound animals, a non-paired Student's t-test was used. The comparison between the number of rats seizing in both groups was performed by means of a Chi square test. For neuronal damage, statistical analysis between groups was performed using ANOVA followed by a Fisher's test for multiple comparisons using the Statview software (Fisher R A, 1946a, Statistical Methods for Research Workers (10th edition) Oliver & Boyd, Edinburgh; Fisher R A, 1946b, The Design of Experiments (4th edition) Oliver & Boyd, Edinburgh)

## NC(=O)OC[C@@H](O)c1ccccc1Cl [Formula 7]
[1]; pilo-TC90 (90 mg/kg), n = 10
  number of neuronal cell bodies, Amygdala, Medial, dorsal anterior: 72.2 ± 5.7°°
  number of neuronal cell bodies, Amygdala, Medial, ventral posterior: 30.7 ± 3.7°°
  number of neuronal cell bodies, Cerebral cortex, Entorhinal, layer II, dorsal: 26.3 ± 0.9
  number of neuronal cell bodies, Cerebral cortex, Entorhinal, layer II, ventral: 25.4 ± 1.1°
  number of neuronal cell bodies, Cerebral cortex, Entorhinal, layer III/IV, dorsal: 26.7 ± 0.8
  number of neuronal cell bodies, Cerebral cortex, Entorhinal, layer III/IV, ventral: 23.7 ± 1.5°°
  number of neuronal cell bodies, Cerebral cortex, Piriform, layer II, dorsal: 32.4 ± 1.1°°
  number of neuronal cell bodies, Cerebral cortex, Piriform, layer II, ventral: 18.4 ± 4.0°°
  number of neuronal cell bodies, Cerebral cortex, Piriform, layer III: 9 ± 3.0°°
  number of neuronal cell bodies, Hippocampus, CA1 area: 47.7 ± 6.6*°
  number of neuronal cell bodies, Hippocampus, CA3 area: 35.1 ± 2.9
  number of neuronal cell bodies, Hippocampus, Hilus: 37.5 ± 3.1
  number of neuronal cell bodies, Thalamus, Central medial: 88.2 ± 8.5
  number of neuronal cell bodies, Thalamus, Dorsolateral, medial, dorsal: 79.4 ± 3.1**°°
  number of neuronal cell bodies, Thalamus, Dorsolateral, ventral lateral: 71.8 ± 5.3°°*
  number of neuronal cell bodies, Thalamus, Mediodorsal central: 27.4 ± 1.5
  number of neuronal cell bodies, Thalamus, Mediodorsal lateral: 22 ± 1.2*°
  number of neuronal cell bodies, Thalamus, Mediodorsal medial: 23.1 ± 2.8°°
[1]; pilo-TC120 (120 mg/kg), n = 8
  number of neuronal cell bodies, Amygdala, Basolateral: 42.7 ± 1.3°°
  number of neuronal cell bodies, Amygdala, Medial, dorsal anterior: 80.2 ± 2.6°°
  number of neuronal cell bodies, Amygdala, Medial, ventral posterior: 34.7 ± 1.7°°
  number of neuronal cell bodies, Cerebral cortex, Entorhinal, layer II, dorsal: 27.3 ± 0.5°°
  number of neuronal cell bodies, Cerebral cortex, Entorhinal, layer II, ventral: 25.1 ± 0.6
  number of neuronal cell bodies, Cerebral cortex, Entorhinal, layer III/IV, dorsal: 26.4 ± 0.7°°
  number of neuronal cell bodies, Cerebral cortex, Entorhinal, layer III/IV, ventral: 24.5 ± 1.4°°
  number of neuronal cell bodies, Cerebral cortex, Piriform, layer II, dorsal: 35.2 ± 1.1°°
  number of neuronal cell bodies, Cerebral cortex, Piriform, layer II, ventral: 30.5 ± 1.3°°
  number of neuronal cell bodies, Cerebral cortex, Piriform, layer III: 15 ± 2.2°°
  number of neuronal cell bodies, Hippocampus, CA1 area: 65.5 ± 2.9°°
  number of neuronal cell bodies, Hippocampus, CA3 area: 39.8 ± 1.5
  number of neuronal cell bodies, Hippocampus, Hilus: 44.8 ± 2.9
  number of neuronal cell bodies, Thalamus, Central medial: 108.2 ± 6.6°
  number of neuronal cell bodies, Thalamus, Dorsolateral, medial, dorsal: 89.8 ± 3.7*°
  number of neuronal cell bodies, Thalamus, Dorsolateral, ventral lateral: 79.0 ± 4.7°°
  number of neuronal cell bodies, Thalamus, Mediodorsal central: 29.9 ± 1.7°
  number of neuronal cell bodies, Thalamus, Mediodorsal lateral: 24.4 ± 1.1°°
  number of neuronal cell bodies, Thalamus, Mediodorsal medial: 28.6 ± 0.8°°
[2]; TC60 (60 mg/kg)
  neuroprotection compared to pilo-DZP rats, ventral entorhinal cortex layers III-IV: 31%
  reduction of neuronal damage recorded in pilo-DZP rats, piriform cortex layer II: 41%
  reduction of neuronal damage recorded in pilo-DZP rats, piriform cortex layers III-IV: 44%
[2]; pilo-TC10 (10 mg/kg)
  more damage (worsening of cell loss) compared with pilo-DZP rats, dorsal entorhinal cortex layers III-IV: 28%
  more damage (worsening of cell loss) compared with pilo-DZP rats, ventral entorhinal cortex layers III-IV: 35%
[2]; pilo-TC30 (30 mg/kg)
  cell loss, CA1 pyramidal layer: 35%
[2]; pilo-TC60 (60 mg/kg)
  cell loss, CA1 pyramidal layer: 16%
[2]; pilo-test compound animals (10, 30, 60 mg/kg)
  cell loss, hilus of the dentate gyrus: 69-72%
[2]; test compound 60 mg/kg
  reduction of neuronal damage, lateral thalamic nucleus: 65%
  reduction of neuronal damage, mediodorsal thalamic nucleus: 42%
[2]; test compound 60 mg/kg vs pilo-DZP
  protection in CA3b: significantly neuroprotective
[2]; test compound 10, 30, 60 mg/kg vs pilo-DZP
  protection in the CA3a area: did not afford any protection
